Results taken from the NIST ThermoML archive (doi:10.1016/j.jct.2011.10.012).
Where “and” joins values, the source holds several entries; their conditions need not be identical. Identical values can stand only once.

Settings: for viscosity: 101.33 kPa, Cone and plate viscometry; for viscosity / mass density: Liquid; for mass density: Vibrating tube method; for surface tension liquid-gas: Wilhelmy plate

CCCCCCCCCCCCCC[P+](CCCCCC)(CCCCCC)CCCCCC.FC(F)(F)C(F)(F)[P-](F)(F)(F)(C(F)(F)C(F)(F)F)C(F)(F)C(F)(F)F
Settings	surface tension liquid-gas [mN/m]	viscosity
283.09 K	–	975.8 mPa·s and 976.8 mPa·s
283.1 K	–	991.3 mPa·s and 992.8 mPa·s and 989.8 mPa·s
288.13 K	–	697.9 mPa·s [middle of 4 runs]
293.07 K	–	504.6 mPa·s [middle of 5 runs]
298.15 K	–	335.9 mPa·s and 336.5 mPa·s
298.51 K	28.99	–
303.15 K	–	256.1 mPa·s [middle of 5 runs]
305.16 K	28.68	–
308.15 K	–	196 mPa·s [middle of 6 runs]
309.15 K	28.44	–
313.15 K	–	151.2 mPa·s [middle of 8 runs]
313.65 K	28.14	–
318.15 K	–	118.8 mPa·s [middle of 8 runs]
319.7 K	27.8	–
323.15 K	–	96.4 mPa·s [middle of 15 runs]
325.35 K	27.58	–
328.15 K	–	79.6 mPa·s [middle of 11 runs]
330.62 K	27.28	–
333.15 K	–	65 mPa·s [middle of 13 runs]
337.9 K	26.85	–
338.15 K	–	54 mPa·s [middle of 13 runs]
343.15 K	–	44.3 mPa·s [middle of 9 runs]
343.29 K	26.57	–
348.15 K	–	37.5 mPa·s [middle of 9 runs]
353.15 K	–	32.1 mPa·s [middle of 8 runs]
358.15 K	–	27.9 mPa·s and 28 mPa·s and 28.1 mPa·s
358.17 K	–	28.2 mPa·s and 28.1 mPa·s and 28 mPa·s
363.17 K	–	24.5 mPa·s and 24.4 mPa·s
363.18 K	–	24.6 mPa·s and 24.5 mPa·s
363.2 K	–	24.6 mPa·s and 24.5 mPa·s

mass density [kg/m3]
Settings	100 kPa	2000 kPa	3000 kPa	5000 kPa	10000 kPa	15000 kPa	20000 kPa	25000 kPa
293.15 K	1185.6	1187	1187.7	1189.2	1192.6	1196.1	1199.4	1202.6
298.15 K	1181.8	1183.2	1183.9	1185.4	1189	1192.5	1195.8	1199.1
303.15 K	1177.9	1179.4	1180.1	1181.6	1185.3	1188.9	1192.3	1195.6
308.15 K	1174	1175.5	1176.3	1177.8	1181.5	1185.2	1188.7	1192.1
313.15 K	1170.1	1171.6	1172.4	1174	1177.8	1181.5	1185.1	1188.6
318.15 K	1166.2	1167.7	1168.5	1170.2	1174.1	1177.8	1181.5	1185
323.15 K	1162.3	1163.8	1164.6	1166.3	1170.3	1174.1	1177.8	1181.4
328.15 K	1158.3	1159.9	1160.7	1162.4	1166.5	1170.4	1174.2	1177.8
333.15 K	1154.4	1155.9	1156.8	1158.5	1162.7	1166.7	1170.5	1174.2
338.15 K	1150.4	1152	1152.9	1154.6	1158.9	1162.9	1166.8	1170.5
343.15 K	1146.4	1148	1148.9	1150.7	1155	1159.1	1163.1	1166.9
